Reference: the NIST ThermoML archive (doi:10.1021/je400055v)

Conditions: Liquid, Vibrating tube method

Cc1ccccc1O [2-methylphenol]
Conditions | mass density [kg/m3]
313.2 K, 1022 kPa | 1027.5
313.2 K, 2031 kPa | 1028.1
313.2 K, 3017 kPa | 1028.7
313.2 K, 4012 kPa | 1029.2
313.2 K, 5018 kPa | 1029.8
313.2 K, 6010 kPa | 1030.4
313.2 K, 7005 kPa | 1030.9
313.2 K, 8006 kPa | 1031.5
313.2 K, 9004 kPa | 1032
313.2 K, 10005 kPa | 1032.6
323.16 K, 1013 kPa | 1018.7
323.16 K, 2039 kPa | 1019.3
323.16 K, 3007 kPa | 1019.9
323.16 K, 4009 kPa | 1020.5
323.16 K, 5005 kPa | 1021.1
323.16 K, 6004 kPa | 1021.7
323.16 K, 6999 kPa | 1022.2
323.16 K, 8008 kPa | 1022.8
323.16 K, 9002 kPa | 1023.4
323.16 K, 10005 kPa | 1024
333.1 K, 1010 kPa | 1009.9
333.1 K, 2033 kPa | 1010.5
333.1 K, 3009 kPa | 1011.1
333.1 K, 4014 kPa | 1011.8
333.1 K, 5004 kPa | 1012.4
333.1 K, 5998 kPa | 1013
333.1 K, 7000 kPa | 1013.6
333.1 K, 8009 kPa | 1014.2
333.1 K, 9004 kPa | 1014.8
333.1 K, 10010 kPa | 1015.4
343.06 K, 1023 kPa | 1000.8
343.06 K, 2024 kPa | 1001.6
343.06 K, 3015 kPa | 1002.2
343.06 K, 4003 kPa | 1002.9
343.06 K, 5009 kPa | 1003.6
343.06 K, 6005 kPa | 1004.2
343.06 K, 7008 kPa | 1004.8
343.06 K, 8003 kPa | 1005.5
343.06 K, 8999 kPa | 1006.1
343.06 K, 10004 kPa | 1006.7
352.99 K, 1043 kPa | 991.9
352.99 K, 2000 kPa | 992.6
352.99 K, 3034 kPa | 993.3
352.99 K, 4015 kPa | 994
352.99 K, 5033 kPa | 994.6
352.99 K, 6007 kPa | 995.3
352.99 K, 7016 kPa | 996
352.99 K, 8006 kPa | 996.7
352.99 K, 9015 kPa | 997.3
352.99 K, 10014 kPa | 998
